Test results published in patent publication US6893846B2, “Primers for use in detecting beta-lactamases” (priority 1998, dated 2005).
Read-outs that look alike come from different tables or passages of the source.

Key:
K. pneumoniae 225 [1] = assay: MicroScan Walkaway microdilution susceptibility test; format: cell-based, Klebsiella pneumoniae; conditions: K. pneumoniae 225
K. pneumoniae 225 [2] = assay: NCCLS disk diffusion assay; format: cell-based, Klebsiella pneumoniae; conditions: disk diffusion, Kleb 225
[3] = test system: E. coli C600N transconjugants; assay: Susceptibility of transconjugants; format: cell-based, Escherichia coli; conditions: E. coli C600N transconjugants of E. aerogenes 187, 200, 220, 184
Description: (§1) Antibiotic susceptibilities were determined by standard disk-diffusion (NCCLS Standard M2-A6) and agar-dilution (NCCLS Standard M7-A4) procedures. Disks were obtained from Becton Dickinson Microbiology Systems (Cockeysville, Md.). Disk-diffusion susceptibilities to the following antibiotics were determined, ampicillin; amoxicillin clavulanic acid; aztreonam; cefazolin; cefoxitin; cefuroxime; cefotaxime; ceftriaxone; ceftazidime; cefepime; imipenem; gentamicin; trimethoprim/sulfamethoxazole and ciprofloxacin. […] The following quality control strains were run simultaneously with the test organisms Escherichia coli ATCC 25922, Pseudomonas aeruginosa ATCC 27853, and E. coli ATCC 35218. Throughout this study, results were interpreted using NCCLS criteria for disk diffusion (NCCLS M2-A6) and broth dilution (NCCLS M7-A4).
[…]. The filter paper mating technique with overnight incubation at 37° C. were performed as described previously (Philippon et al., Antimicrob. Agents Chemother., 33:1131-1136 (1989)). Transconjugants were selected on LB (Luria Bertani) agar [Difco (Detroit, Mich.)] plates containing 12 μg per ml nalidixic acid and 20 μg per ml ampicillin.

[4] = test system: E. coli HB101 transformant (17 kb plasmid); conditions: disk diffusion, Tr (17 kb) = transformant E. coli HB101
E. aerogenes = assay: Disk diffusion susceptibility test; format: cell-based, Enterobacter aerogenes; conditions: all the E. aerogenes strains
Description: as §1

[5] = test system: E. coli C600 transconjugant; conditions: disk diffusion, Tc = transconjugate E. coli C600
[6] = test system: beta-lactamases in sonic extracts of E. coli; assay: Isoelectric focusing overlay: cefotaxime hydrolysis and inhibitors
[7] = target: beta-lactamases in sonic extracts of E. coli (Escherichia coli, UniProt P62593); assay: as above
[8] = target: beta-lactamases in sonic extracts of K. pneumoniae (Klebsiella pneumoniae, UniProt P0AD64); conditions: Kpn1, beta-lactamase pI 7.6 (SHV-1)
[9] = target: beta-lactamases in sonic extracts of K. pneumoniae (Escherichia coli, UniProt P62593)
[10] = test system: beta-lactamases in sonic extracts of K. pneumoniae
[11] = target: beta-lactamases in sonic extracts of K. pneumoniae (Klebsiella pneumoniae, UniProt P0AD64, E235K/G234S); conditions: Kpn2, beta-lactamase pI 8.2 (SHV-5)
[12] = test system: beta-lactamases in sonic extracts of E. aerogenes; assay: Isoelectric focusing overlay: cefotaxime hydrolysis, inhibitors, induction
[13] = target: single beta-lactamase in E. coli cell extracts (Escherichia coli, UniProt P62593, E102K/R162S); assay: Spectrophotometric hydrolysis assay on crude beta-lactamase extracts; conditions: E. coli Pit 64 extract, beta-lactamase pI 5.6; 100 μM substrate
[14] = target: single beta-lactamase in P. mirabilis cell extracts (Escherichia coli, UniProt P62593, E102K/R162S); assay: as above; conditions: P. mirabilis Pit 85 extract, beta-lactamase pI 5.6; 100 μM substrate
[15] = target: single beta-lactamase in K. pneumoniae cell extracts (Klebsiella pneumoniae, UniProt P0AD64, G234S); assay: as above; conditions: K. pneumoniae Pit 100 extract, beta-lactamase pI 7.6; 100 μM substrate
[16] = target: single beta-lactamase in K. pneumoniae cell extracts (Escherichia coli, UniProt P62593, E102K/R162S); assay: as above; conditions: K. pneumoniae Pit 16 extract, beta-lactamase pI 5.6; 100 μM substrate
[17] = target: single beta-lactamase in K. pneumoniae cell extracts (Klebsiella pneumoniae, UniProt P0AD64, E235K/G234S); assay: as above; conditions: K. pneumoniae Pit 82 extract, beta-lactamase pI 8.2; 100 μM substrate
E. coli = assay: Agar dilution MIC, South African isolates; format: cell-based, Escherichia coli; conditions: tzp with tazobactam 4 μg/ml
Description: (§2) The strains were provided in response to a request for all strains of Enterobacteriaceae, lacking inducible beta-lactamases, that were intermediate or resistant to cefotaxime or ceftazidime. […]

P. mirabilis = assay: Agar dilution MIC, South African isolates; format: cell-based, Proteus mirabilis; conditions: 4 strains, tzp with tazobactam 4 μg/ml
Description: During a period of three months in 1993, […] strains of Klebsiella pneumoniae (13 blood, 5 burn, 7 wound, 11 tracheal isolates), 4 strains of Proteus mirabilis (all wound isolates) and 4 strains of Escherichia coli (1 blood, 1 burn, 2 wound isolates) were collected from patients at the following medical centers in South Africa: Tygerberg Hospital near Cape Town, King Edward VIII Hospital in Durban, Chris Hani Baragwanath Hospital in Soweto and Pretoria Academic Hospital in Pretoria. The strains were provided in response to a request for all strains of Enterobacteriaceae, lacking inducible beta-lactamases, that were intermediate or resistant to cefotaxime or ceftazidime. […] Therefore accurate prevalence data were not obtained.
Antibiotic susceptibility was determined by standard disk diffusion (NCCLS Standard M2-T4, 1994) and agar dilution (NCCLS Standard M7-T2, 1994) procedures. Standard powders of antimicrobial agents were kindly provided by the following companies: piperacillin and tazobactam (Lederle Laboratories, Wayne, N.J.); cefoxitin and imipenem, (Merck, Rathway, N.J.); cefotaxime, (Hoechst-Roussel Pharmaceuticals Inc., Somerville, N.J.); ceftazidime, (Glaxo Group Research Ltd., Greenford, England); aztreonam and cefepime, (Bristol-Myers Squibb, Princeton, N.J.). Disks for agar diffusion were obtained from Becton Dickinson Microbiology Systems (Cockeysville, Md.). For quality control purposes, the following quality control strains were run simultaneously with the test organisms E. coli ATCC 25922, Pseudomonas aeruginosa ATCC 27853, E. coli ATCC 35218, and Staphylococcus aureus ATCC 29213. Throughout this study, results were interpreted using NCCLS criteria for disk diffusion (NCCLS Standard M2-T4, 1994) and broth dilution (NCCLS Standard M7-T2, 1994).

K. pneumoniae = assay: Agar dilution MIC, South African isolates; format: cell-based, Klebsiella pneumoniae; conditions: tzp with tazobactam 4 μg/ml
Description: as §2

K. pneumoniae 225 [18] = assay: NCCLS microdilution susceptibility test; format: cell-based, Klebsiella pneumoniae; conditions: Klebsiella pneumoniae, 225
K. pneumoniae 225 [19] = assay: Three-dimensional test (enzymatic inactivation of antibiotics); conditions: beta-lactamase-mediated hydrolysis by K. pneumoniae 225, lawn E. coli ATCC 25922
[20] = Ec1, beta-lactamase pI 5.6 (TEM-10 or 26)
[21] = Ec2, beta-lactamase pI 7.6 (SHV-2 or 8)
[22] = Ec1, beta-lactamase pI 5.4 (TEM-1)
[23] = Ec2, beta-lactamase pI 5.4 (TEM-1)
[24] = Kpn2, beta-lactamase pI 5.4 (TEM-1)
[25] = Kpn3, beta-lactamase pI 5.4 (TEM-1)
[26] = Kpn1, beta-lactamase pI 5.6 (TEM-10 or 26)
[27] = Kpn2, beta-lactamase pI 7.6 (SHV-2 or 8)
[28] = Kpn3, beta-lactamase pI 8.0 (AmpC)
[29] = SHV-3 strain (1), Bush group 1 enzyme pI 8.3
[30] = SHV-3 strain (1), Bush group 2be enzyme pI 6.9
[31] = SHV-4 strains (29), Bush group 1 enzyme pI 8.3
[32] = SHV-4 strains (29), Bush group 2be enzyme pI 7.8
[33] = SHV-5 strain (1), Bush group 1 enzyme pI 8.3
[34] = SHV-5 strain (1), Bush group 2Be enzyme pI 8.0

Compound | Zone Size (K. pneumoniae 225 [2]) | susceptibility after transfer of plasmids encoding SHV beta-lactamase genes [3] | Zone Size [4] | Zone Size [5] | Inhibited by [6, 20] | Inhibited by [6, 21] | Inhibited by [7, 22] | Inhibited by [7, 23] | Inhibited by [8] | Inhibited by [9, 24] | Inhibited by [9, 25] | Inhibited by [10, 26] | Inhibited by [10, 27] | Inhibited by [10, 28] | Inhibited by [11] | Inhibited by [12, 29] | Inhibited by [12, 30] | Inhibited by [12, 31] | Inhibited by [12, 32] | Inhibited by [12, 33] | also measured
trimethoprim/sulfamethoxazole | 6 mm | resistance | 31 mm | 8 mm | – | – | – | – | – | – | – | – | – | – | – | – | – | – | – | – | MicroScan susceptibility result (K. pneumoniae 225 [1]): Resistant; MicroScan MIC (K. pneumoniae 225 [1]; MicroScan test, unit not given): > 2/38; Disk diffusion susceptibility (E. aerogenes): resistant
Cc1onc(-c2ccccc2Cl)c1C(=O)N[C@@H]1C(=O)N2[C@@H]1SC(C)(C)[C@@H]2C(=O)O [cloxacillin] | – | – | – | – | No | No | No | No | No | No | No | No | No | Yes | Yes | yes | no | yes | no | yes | Inhibited by [12, 34]: no
O=C(Cc1cccs1)N[C@@H]1C(=O)N2C(C(=O)O)=C(/C=C/c3ccc([N+](=O)[O-])cc3[N+](=O)[O-])CS[C@H]12 [Nitrocefin] | – | – | – | – | – | – | – | – | – | – | – | – | – | – | – | – | – | – | – | – | Hydrolysis [13]: 275 nmol of substrate hydrolyzed/m; Hydrolysis [14]: 138 nmol of substrate hydrolyzed/m; Hydrolysis [15]: 159 nmol of substrate hydrolyzed/m; Hydrolysis [16]: 114 nmol of substrate hydrolyzed/m; Hydrolysis [17]: 136 nmol of substrate hydrolyzed/m
C[C@H]1[C@H](NC(=O)/C(=N\OC(C)(C)C(=O)O)c2csc(N)n2)C(=O)N1S(=O)(=O)O [aztreonam] | 8 mm | decreased susceptibility | 33 mm | 7 mm | – | – | – | – | – | – | – | – | – | – | – | – | – | – | – | – | Hydrolysis [13]: 0.4 nmol of substrate hydrolyzed/m; MIC range (E. coli; resistance phenotype Ec1, 3 strains): 16 µg/mL; MIC range (E. coli; resistance phenotype Ec2, 1 strain): 2 µg/mL; MIC range (P. mirabilis): 0.5 to 2 µg/mL; MIC range (K. pneumoniae; resistance phenotype Kpn1, 8 strains): 16 to 64 µg/mL; MIC range (K. pneumoniae; resistance phenotype Kpn2, 28 strains): 1 to 128 µg/mL; MIC range (K. pneumoniae; resistance phenotype Kpn3 (K. pneumoniae Pit 68), 1 strain, listed as atm): 2 µg/mL; MIC (K. pneumoniae 225 [18]): > 64 µg/mL; Hydrolysis [14]: 0.5 nmol of substrate hydrolyzed/m; Hydrolysis [15]: 0.9 nmol of substrate hydrolyzed/m; Hydrolysis [16]: 0.6 nmol of substrate hydrolyzed/m; Hydrolysis [17]: 0.9 nmol of substrate hydrolyzed/m; three dimensional test (K. pneumoniae 225 [19]): positive
O=C(O)[C@H]1/C(=C/CO)O[C@@H]2CC(=O)N21 [clavulanate] | – | – | – | – | Yes | Yes | Yes | Yes | Yes | Yes | Yes | Yes | Yes | No | No | no | yes | no | yes | no | Inhibited by [12, 34]: yes
